Values of other authors as cited in patent US7413751B2, “Methods of treatment using a gastric retained losartan dosage” (Depomed, Inc., priority 2001, dated 2008).
Like-named read-outs stand apart in the source and are kept apart here.

Key:
[1] = test system: diastolic pressure response to angiotensin II

half-life (Japanese patients tested)	half-life (in vivo)	tmax (in vivo)	Compound	effects at 24 hours ([1]; 25 mg dosage)	effects at 24 hours ([1]; 50 mg and 100 mg dosages)	peak:trough blood pressure ratio (5-6 hours after dosing: 24 hours after dosing) ([1]; 50 mg dosage)	peak:trough blood pressure ratio (5-6 hours after dosing: 24 hours after dosing) ([1]; 100 mg dosage)	blockade of the diastolic pressure response to angiotensin II ([1]; 24 hours after dosing)
4 to 5 h	6 to 9 h	2 to 4 h	CCCCc1nc(Cl)c(C(=O)O)n1Cc1ccc(-c2ccccc2-c2nn[nH]n2)cc1 [active metabolite of losartan potassium]	–	–	–	–	–
–	–	–	CCCCc1nc(Cl)c(CO)n1Cc1ccc(-c2ccccc2-c2nnn[nH]2)cc1.[K] [losartan potassium, 2-butyl-4-chloro-1[p-(o-1H-tetrazol-5-ylphenyl)benzyl]imidazole-5-methanol monopotassium salt]	not	observed	60%	72%	approximately 30%
